Tests used:
[1] = tested on: Viola tricolor (wild pansy, VIOTR); assay: Greenhouse postemergence trial VIOTR;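 note: greenhouse plants sprayed at second to third true leaf stage, injury rated visually after 20-22 d against solvent-blank sprayed controls, 0 meaning no injury and 100 complete kill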
[2] = tested on: Oryza sativa (common rice, ORYSA); assay: Greenhouse postemergence trial ORYSA; assay type: in vivo; conditions: diflufenzopyr 10 g/ha
Experimental: (§1) Seeds of the desired test plant species were planted in a 90:10% v/v (volume/volume) mixture of PRO-MIX® BX (Premier Tech Horticulture, Quakertown, PA, USA) and PROFILE® GREENS GRADE™ (Profile Products LLC, Buffalo Grove, IL, USA) planting mixture, which typically has a pH of 5.2 to 6.2 and an organic matter content of at least 50 percent, in plastic pots with a surface area of 103.2 square centimeters (cm^2). […] The plants were grown for 7-36 days (d) in a greenhouse with an approximate 14-hour (h) photo-period which was maintained at about 23° C. during the day and 22° C. during the night. Nutrients and water were added on a regular basis and supplemental lighting was provided with overhead metal halide 1000-Watt lamps as necessary. The plants were employed for testing when they reached the second or third true leaf stage.
Emulsifiable concentrates of each of each pyridine carboxylate herbicide (Compound A or Compound B) were prepared at 100 grams acid equivalent per liter (g ae/L). […]
(§2) The treated plants and control plants were placed in a greenhouse as described above and watered by sub-irrigation to prevent wash-off of the test compounds. After 20-22 d, the condition of the test plants as compared with that of the control plants was determined visually and scored on a scale of 0 to 100 percent where 0 corresponds to no injury and 100 corresponds to complete kill.

[3] = tested on: Cirsium arvense (Canadian thistle, CIRAR); assay: Greenhouse postemergence trial CIRAR; assay type: in vivo
[4] = tested on: Digitaria sanguinalis (large crabgrass, DIGSA); assay: Greenhouse postemergence trial DIGSA; assay type: in vivo
Experimental: as §1
(§3) Emulsifiable concentrates of each of each pyridine carboxylate herbicide (Compound A or Compound B) were prepared at 100 grams acid equivalent per liter (g ae/L). The emulsifiable concentrates also included a safener, cloquintocet-mexyl, at 120 grams active ingredient per liter (g ai/L), unless otherwise noted below. An aliquot of each emulsifiable concentrate was placed in a 25 mL glass vial and diluted with an aqueous mixture of 1.25% (v/v) ACTIROB® B esterified rapeseed oil (Bayer Crop Science, Research Triangle Park, NC, USA) or MSO® Concentrate with LECI-TECH® methylated soybean oil (Loveland Products, Loveland, CO, USA) to obtain concentrated stock solutions at the highest application rate for each herbicide, based upon a 12 milliliter (mL) application volume at a rate of 187 liters per hectare (L/ha). The concentrated stock solutions were further diluted with an aqueous mixture of 1.25% v/v ACTIROB® B or MSO® Concentrate with LECI-TECH® to obtain stock solutions at reduced application rates for each herbicide. Spray solutions of the herbicide combinations (Compound A or Compound B plus synthetic auxin herbicide or auxin transport inhibitor) were prepared by adding weighed amounts or aliquots of the synthetic auxin herbicide or auxin transport inhibitor to the stock solutions of Compound A or Compound B to form 12-mL spray solutions in two-way combinations.
(§4) The spray solutions were applied to the plant material with an overhead Mandel track sprayer equipped with 8002E nozzles calibrated to deliver 187 L/ha over an application area of 0.503 square meters (m^2) at a spray height of 18 inches (43 centimeters (cm)) above the average plant canopy. Control plants were sprayed in the same manner with the solvent blank. All pyridine carboxylate herbicide (component a) application rates are given as “g ae/ha” and all synthetic auxin herbicide or auxin transport inhibitor (component b) application rates are given as “g ai/ha.”
as §2

[5] = tested on: Polygonum convolvulus (wild buckwheat, POLCO); assay: Greenhouse postemergence trial POLCO; assay type: in vivo
[6] = tested on: Lolium multiflorum (Italian ryegrass, LOLMU); assay: Greenhouse postemergence trial LOLMU; assay type: in vivo
Experimental: as §1, §3, §4, §2

[7] = tested on: Brassica napus (spring rape, BRSNN); assay: Greenhouse postemergence trial BRSNN; assay type: in vivo; conditions: diflufenzopyr 10 g/ha
Experimental: The plants were grown for 7-36 days (d) in a greenhouse with an approximate 14-hour (h) photo-period which was maintained at about 23° C. during the day and 22° C. during the night. Nutrients and water were added on a regular basis and supplemental lighting was provided with overhead metal halide 1000-Watt lamps as necessary. The plants were employed for testing when they reached the second or third true leaf stage.
The emulsifiable concentrates also included a safener, cloquintocet-mexyl, at 120 grams active ingredient per liter (g ai/L), unless otherwise noted below.
Control plants were sprayed in the same manner with the solvent blank. All pyridine carboxylate herbicide (component a) application rates are given as “g ae/ha” and all synthetic auxin herbicide or auxin transport inhibitor (component b) application rates are given as “g ai/ha.”
as §2

[8] = tested on: Kochia scoparia (kochia, KCHSC); assay: Greenhouse postemergence trial KCHSC; assay type: in vivo
[9] = tested on: Rumex obtusifolius (broad-leaf dock, RUMOB); assay: Greenhouse postemergence trial RUMOB; assay type: in vivo
[10] = tested on: Abutilon theophrasti (velvetleaf, ABUTH); assay: Greenhouse postemergence trial ABUTH; assay type: in vivo
Experimental: as §1, §3, §4, §2

[11] = tested on: Setaria faberi (giant foxtail, SETFA); assay: Greenhouse postemergence trial SETFA; assay type: in vivo
Experimental: as §1, §3, §4, §2

[12] = tested on: Echinochloa crus-galli (barnyard grass, ECHCG); assay: Greenhouse postemergence trial ECHCG; assay type: in vivo
Experimental: as §1, §3, §4, §2

[13] = tested on: Glycine max (volunteer soybean, GLXMA); assay: Greenhouse postemergence trial GLXMA; assay type: in vivo; conditions: GLXMA; 140 g/ha alone
Experimental: as §1, §3, §4, §2

[14] = tested on: Alopecurus myosuroides (blackgrass, ALOMY); assay: Greenhouse postemergence trial ALOMY; assay type: in vivo; conditions: ALOMY; 140 g/ha alone
Experimental: as §1
(§5) Emulsifiable concentrates of each of each pyridine carboxylate herbicide (Compound A or Compound B) were prepared at 100 grams acid equivalent per liter (g ae/L). The emulsifiable concentrates also included a safener, cloquintocet-mexyl, at 120 grams active ingredient per liter (g ai/L), unless otherwise noted below. An aliquot of each emulsifiable concentrate was placed in a 25 mL glass vial and diluted with an aqueous mixture of 1.25% (v/v) ACTIROB® B esterified rapeseed oil (Bayer Crop Science, Research Triangle Park, NC, USA) or MSO® Concentrate with LECI-TECH® methylated soybean oil (Loveland Products, Loveland, CO, USA) to obtain concentrated stock solutions at the highest application rate for each herbicide, based upon a 12 milliliter (mL) application volume at a rate of 187 liters per hectare (L/ha). The concentrated stock solutions were further diluted with an aqueous mixture of 1.25% v/v ACTIROB® B or MSO® Concentrate with LECI-TECH® to obtain stock solutions at reduced application rates for each herbicide. Spray solutions of the herbicide combinations (Compound A or Compound B plus synthetic auxin herbicide or auxin transport inhibitor) were prepared by adding weighed amounts or aliquots of the synthetic auxin herbicide or auxin transport inhibitor to the stock solutions of Compound A or Compound B to form 12-mL spray solutions in two-way combinations. […]
as §2

[15] = tested on: Stellaria media (chickweed, STEME); assay: Greenhouse postemergence trial STEME; assay type: in vivo; conditions: STEME; 140 g/ha alone
Experimental: as §1, §3, §4, §2

[16] = tested on: Brassica napus (winter rape, BRSNW); assay: Greenhouse postemergence trial BRSNW; assay type: in vivo; conditions: Brassica napus, post-emergence, read-out: % visual injury Obs
[17] = tested on: Cyperus esculentus (nutsedge, CYPES); assay: Greenhouse postemergence trial CYPES; assay type: in vivo; conditions: CYPES; 140 g/ha alone
Experimental: as §1, §5, §2

[18] = tested on: Avena fatua (wild oat, AVEFA); assay: Greenhouse postemergence trial AVEFA; assay type: in vivo; conditions: AVEFA; 140 g/ha alone
Experimental: as §1, §5, §2

[19] = tested on: Ipomoea hederacea (ivyleaf morningglory, IPOHE); assay: Greenhouse postemergence trial IPOHE; assay type: in vivo; conditions: IPOHE; 140 g/ha alone
Experimental: as §1, §3, §4, §2

[20] = tested on: Helianthus annuus (common sunflower, HELAN); assay: Greenhouse postemergence trial HELAN; assay type: in vivo; conditions: HELAN; 140 g/ha alone
[21] = tested on: Sorghum vulgare (grain sorghum, SORVU); assay: Greenhouse postemergence trial SORVU; assay type: in vivo; conditions: SORVU; 140 g/ha alone
Experimental: as §1, §5, §2

[22] = tested on: Leptochloa chinensis (Chinese sprangletop, LEFCH); assay: Greenhouse postemergence trial LEFCH; assay type: in vivo; conditions: LEFCH; 140 g/ha alone
Experimental: as §1, §5, §2

In the case of C/C(=N\NC(=O)Nc1cc(F)cc(F)c1)c1ncccc1C(=O)O [Diflufenzopyr], the “VIOTR Obs (% visual injury)” value ([1]; diflufenzopyr 10 g/ha) is reported as 8%, the “ORYSA Obs (% visual injury)” value [2] is reported as 8% and the “CIRAR Obs (% visual injury)” value ([3]; diflufenzopyr 10 g/ha) is reported as 10%. The “DIGSA Obs (% visual injury)” value ([4]; diflufenzopyr 10 g/ha) was 0%, the “POLCO Obs (% visual injury)” value ([5]; diflufenzopyr 10 g/ha) was 5% and the “LOLMU Obs (% visual injury)” value ([6]; diflufenzopyr 10 g/ha) was 8%. The “BRSNN Obs (% visual injury)” value [7] was 70%, the “KCHSC Obs (% visual injury)” value ([8]; diflufenzopyr 10 g/ha) was 10% and the “RUMOB Obs (% visual injury)” value ([9]; diflufenzopyr 10 g/ha) was 8%. The “ABUTH Obs (% visual injury)” value ([10]; diflufenzopyr 10 g/ha) was 38%, the “SETFA Obs (% visual injury)” value ([11]; diflufenzopyr 10 g/ha) was 20% and the “ECHCG Obs (% visual injury)” value ([12]; diflufenzopyr 10 g/ha) was 0%.
With O=C(O)c1cc(I)cc(I)c1I [2,3,5-TIBA] the “% visual injury, Obs” value [13] was 40%, the “% visual injury, Obs” value ([1]; VIOTR, 140 g/ha alone) was 0% and the “% visual injury, Obs” value [14] was 0%. For the same molecule, the “% visual injury, Obs” value [15] was 0%, the “% visual injury, Obs” value ([3]; CIRAR, 140 g/ha alone) was 0% and the plant injury at 140 g/ha [16] was 0%. For the same molecule, the “% visual injury, Obs” value ([4]; DIGSA, 140 g/ha alone) was 0%, the “% visual injury, Obs” value ([5]; POLCO, 140 g/ha alone) was 0% and the “% visual injury, Obs” value [17] was 0%. The “% visual injury, Obs” value [18] was 0%, the “% visual injury, Obs” value ([6]; LOLMU, 140 g/ha alone) was 0% and the “% visual injury, Obs” value ([8]; KCHSC, 140 g/ha alone) was 0%. The “% visual injury, Obs” value ([9]; RUMOB, 140 g/ha alone) was 0%, the “% visual injury, Obs” value ([10]; ABUTH, 140 g/ha alone) was 0% and the “% visual injury, Obs” value ([11]; SETFA, 140 g/ha alone) was 0%. The “% visual injury, Obs” value [19] was 0%, the “% visual injury, Obs” value [20] was 0% and the “% visual injury, Obs” value ([12]; ECHCG, 140 g/ha alone) was 0%. The “% visual injury, Obs” value [21] was 0% and the “% visual injury, Obs” value [22] was 0%.
